Results taken from patent US10723727B2, “Tubulysin analogs and methods for their preparation” (priority 2016, dated 2020).

molecular target: T1, tubulin/RB3-stathmin-like-domain (RB3-SLD-tdm) complex (Sus scrofa, UniProt P02550+P02554); experiment: Tubulin Peptide-Binding Site Competition Assay (fluorescence polarization); design: species or system Porcine; settings: FP competition with BODIPY-labeled vinca peptide probe; read after five hours at 22° C.; read-out: Tubulin Peptide-Binding Site Competition Assay IC50
T1 construct: purchased Cytoskeleton, Inc. T240; host or cells: RB3-SLD was made in house in E. coli
Experimental: Tubulin Peptide-Binding Site Competition Assay
Tubulin binding potency was measured for payloads or cysteine-capped linker-payloads using a fluorescence polarization (FP) competition assay. The binding of a BODIPY-labeled vinca peptide probe (# B31) to a tubulin/RB3-stathmin-like-domain (RB3-SLD-tdm) complex generates a high FP signal, which can be decreased when mixing with test compounds that compete with the FP probe. The order of addition for the reagents in the FP assay was designed to pre-mix the FP probe with various concentrations of the test compound before mixing them with the tubulin/RB3-SLD-dm complex. The final assay concentrations of the probe, tubulin and RB3-SLD-dm were 3, 6, and 100 nM, respectively. IC50 for each test compound is obtained by fitting the dose-dependent FP signal change using GraphPad Prism version 5 software (La Jolla, Calif.) while Ki is converted from the IC50 using the equations described previously (Nikolovska-Coleska et al., 2004). The FP signals were measured on an Infinite M1000 (Tecan, San Jose, Calif.) using ProxiPlate-384 F Plus, Black (Perkin-Elmer, Waltham, Mass., Cat #6008260) with 15 μL of solution per well. Sample dilution and mixing were done using a Beckman Biomek XF (Brea, Calif.). Porcine tubulin was purchased from Cytoskeleton, Inc. (Denver, Colo., Cat #T240) and RB3-SLD was expressed in E. coli. and purified on Q and then Superdex75 columns. The FP assay test for each compound was run in duplicates by mixing 6 μL of solution 1 containing 2.5× test compound (2.5× serial dilution from 7.8 μM maximum concentration, 11 total concentrations) and 7.5 nM of the FP probe in 80 mM PIPES, pH 7.0, 0.02% Tween 20, 2 mM MgCl2, 1 mM EGTA and 3% DMSO with 9 μL of solution 2 containing […] porcine tubulin and 167 nM of RB3-SLD-dm peptide ([…]-[…]) on ProxiPlate-384 micro-plates.

`CC[C@H](C)[C@H](NC(=O)C(C)(C)N(C)C)C(=O)N(C)[C@H](C[C@@H](OC(C)=O)c1nc(C(=O)N[C@@H](Cc2ccccc2)C[C@H](C)C(=O)OC)cs1)C(C)C` [#B34, N,N,-2-trimethylalanyl-N-[(1R,3R)-1-(acetyloxy)-1-(4-{[(2R,4S)-5-methoxy-4-methyl-5-oxo-1-phenylpentan-2-yl]carbamoyl}-1,3-thiazol-2-yl)-4-methylpentan-3-yl]-N-methyl-L-isoleucinamide] was tested. Which IC50 did it give?
The IC50 was 24.8 nM.

`CC[C@H](C)[C@H](NC(=O)C(C)(C)N)C(=O)N(C)[C@H](C[C@@H](OC(C)=O)c1nc(C(=O)N[C@@H](Cc2ccccc2)C[C@H](C)C(=O)OC)cs1)C(C)C` [#B35, 2-methylalanyl-N-[(1R,3R)-1-(acetyloxy)-1-(4-{[(2R,4S)-5-methoxy-4-methyl-5-oxo-1-phenylpentan-2-yl]carbamoyl}-1,3-thiazol-2-yl)-4-methylpentan-3-yl]-N-methyl-L-isoleucinamide] was tested. Which IC50 did it give?
Its IC50 is 96.8 nM.

`CC[C@H](C)[C@H](NC(=O)[C@@]1(C)CCCN1C)C(=O)N(C)[C@H](C[C@@H](OC(C)=O)c1nc(C(=O)NCCn2nc(C)cc2C)cs1)C(C)C` [#B42, 1,2-dimethyl-D-prolyl-N-[(1R,3R)-1-(acetyloxy)-1-(4-{[2-(3,5-dimethyl-1H-pyrazol-1-yl)ethyl]carbamoyl}-1,3-thiazol-2-yl)-4-methylpentan-3-yl]-N-methyl-L-isoleucinamide] was tested. Which IC50 did it give?
Its IC50 is 27.6 nM.

For `CC[C@H](C)[C@H](NC(=O)[C@@]1(C)CCCN1C)C(=O)N(C)[C@H](C[C@@H](OC(C)=O)c1nc(C(=O)NCCCN2CCCC2=O)cs1)C(C)C` [#B43, 1,2-dimethyl-D-prolyl-N-[(1R,3R)-1-(acetyloxy)-4-methyl-1-(4-{[3-(2-oxopyrrolidin-1-yl)propyl]carbamoyl}-1,3-thiazol-2-yl)pentan-3-yl]-N-methyl-L-isoleucinamide], which IC50 is on record?
Its IC50 is 51.8 nM.

With `CC[C@H](C)[C@H](NC(=O)[C@@]1(C)CCCN1C)C(=O)N(C)[C@H](C[C@@H](OC(C)=O)c1nc(C(=O)NCCN2Cc3ccccc3C2=O)cs1)C(C)C` [#B44, 1,2-dimethyl-D-prolyl-N-[(1R,3R)-1-(acetyloxy)-4-methyl-1-(4-{[2-(1-oxo-1,3-dihydro-2H-isoindol-2-yl)ethyl]carbamoyl}-1,3-thiazol-2-yl)pentan-3-yl]-N-methyl-L-isoleucinamide] as the compound, how does the IC50 read?
The IC50 was 47.6 nM.

Which IC50 does the source give for `CC[C@H](C)[C@H](NC(=O)[C@@]1(C)CCCN1C)C(=O)N(C)[C@H](C[C@@H](OC(C)=O)c1nc(C(=O)NCCc2ccc(-c3ccccc3)cc2)cs1)C(C)C` [#B45, 1,2-dimethyl-D-prolyl-N-[(1R,3R)-1-(acetyloxy)-1-(4-{[2-(biphenyl-4-yl)ethyl]carbamoyl}-1,3-thiazol-2-yl)-4-methylpentan-3-yl]-N-methyl-L-isoleucinamide] here?
The IC50 was 436 nM.

Which IC50 does the source give for `CC[C@H](C)[C@H](NC(=O)[C@@]1(C)CCCN1C)C(=O)N(C)[C@H](C[C@@H](OC(C)=O)c1nc(C(=O)NCCN2CCOCC2)cs1)C(C)C` [#B46, 1,2-dimethyl-D-prolyl-N-[(1R,3R)-1-(acetyloxy)-4-methyl-1-(4-{[2-(morpholin-4-yl)ethyl]carbamoyl}-1,3-thiazol-2-yl)pentan-3-yl]-N-isomethyl-L-leucinamide] here?
The IC50 was 282 nM.

How did the IC50 turn out when `CC[C@H](C)[C@H](NC(=O)[C@@]1(C)CCCN1C)C(=O)N(C)[C@H](C[C@@H](OC(C)=O)c1nc(C(=O)NC2(Cc3ccccc3)CCCCC2)cs1)C(C)C` [#B47, 1,2-dimethyl-D-prolyl-N-[(1R,3R)-1-(acetyloxy)-1-{4-[(1-benzylcyclohexyl)carbamoyl]-1,3-thiazol-2-yl}-4-methylpentan-3-yl]-N-methyl-L-isoleucinamide] was run?
The IC50 was 202 nM.

How did the IC50 turn out when `CC[C@H](C)[C@H](NC(=O)[C@@]1(C)CCCN1C)C(=O)N(C)[C@H](C[C@@H](OC(C)=O)c1nc(C(=O)NCCn2ccnc2)cs1)C(C)C` [#B48, 1,2-dimethyl-D-prolyl-N-[(1R,3R)-1-(acetyloxy)-1-{4-{[2-(1H-imidazol-1-yl)ethyl]carbamoyl}-1,3-thiazol-2-yl)-4-methylpentan-3-yl]-N-methyl-L-isoleucinamide] was run?
The IC50 was 110 nM.

How did the IC50 turn out when `CC[C@H](C)[C@H](NC(=O)[C@@]1(C)CCCN1C)C(=O)N(C)[C@H](C[C@@H](OC(C)=O)c1nc(C(=O)NCCC2CCCCC2)cs1)C(C)C` [#B49, 1,2-dimethyl-D-prolyl-N-[(1R,3R)-1-(acetyloxy)-1-{4-[(2-cyclohexylethyl)carbamoyl]-1,3-thiazol-2-yl}-4-methylpentan-3-yl]-N-methyl-L-isoleucinamide] was run?
Its IC50 is 127 nM.

How did the IC50 turn out when `CC[C@H](C)[C@H](NC(=O)[C@@]1(C)CCCN1C)C(=O)N(C)[C@H](C[C@@H](OC(C)=O)c1nc(C(=O)NC2(c3ccccc3)CC2)cs1)C(C)C` [#B52, 1,2-dimethyl-D-prolyl-N-[(1R,3R)-1-(acetyloxy)-4-methyl-1-{4-[(1-phenylcyclopropyl)carbamoyl]-1,3-thiazol-2-yl}pentan-3-yl]-N-methyl-L-isoleucinamide] was run?
Its IC50 is 61.8 nM.

For `CC[C@H](C)[C@H](NC(=O)[C@@]1(C)CCCN1C)C(=O)N(C)[C@H](C[C@@H](OC(C)=O)c1nc(C(=O)NCCc2c[nH]cn2)cs1)C(C)C` [#B54, 1,2-dimethyl-D-prolyl-N-[(1R,3R)-1-(acetyloxy)-1-(4-{[2-(1H-imidazol-4-yl)ethyl]carbamoyl}-1,3-thiazol-2-yl)-4-methylpentan-3-yl]-N-methyl-L-isoleucinamide], which IC50 is on record?
The IC50 was 60.6 nM.

`CC[C@H](C)[C@H](NC(=O)[C@@]1(C)CCCN1C)C(=O)N(C)[C@H](C[C@@H](OC(C)=O)c1nc(C(=O)NC2(Cc3ccccc3)CC2)cs1)C(C)C` [#B55] was tested. Which IC50 did it give?
Its IC50 is 28.4 nM.

Which IC50 does the source give for `CC[C@H](C)[C@H](NC(=O)[C@@]1(C)CCCN1C)C(=O)N(C)[C@H](C[C@@H](OC(C)=O)c1nc(C(=O)NCCn2cccn2)cs1)C(C)C` [#B56, 1,2-dimethyl-D-prolyl-N-[(1R,3R)-1-(acetyloxy)-4-methyl-1-(4-{[2-(1H-pyrazol-1-yl)ethyl]carbamoyl}-1,3-thiazol-2-yl)pentan-3-yl]-N-methyl-L-isoleucinamide] here?
Its IC50 is 33.6 nM.

For `CC[C@H](C)[C@H](NC(=O)[C@@]1(C)CCCN1C)C(=O)N(C)[C@H](C[C@@H](OC(C)=O)c1nc(C(=O)NC2CCc3ccccc3C2)cs1)C(C)C` (stereo partly drawn) [#B57, 1,2-dimethyl-D-prolyl-N-{(1R,3R)-1-(acetyloxy)-4-methyl-1-[4-(1,2,3,4-tetrhydronaphthalen-2-ylcarbamoyl)-1,3-thiazol-2-yl)pentan-3-yl}-N-methyl-L-isoleucinamide], which IC50 is on record?
The IC50 was 78.8 nM.

Which IC50 does the source give for `CC[C@H](C)[C@H](NC(=O)[C@@]1(C)CCCN1C)C(=O)N(C)[C@H](C[C@@H](OC(C)=O)c1nc(C(=O)NCCc2c[nH]c3ccccc23)cs1)C(C)C` [#B59, 1,2-dimethyl-D-prolyl-N-[(1R,3R)-1-(acetyloxy)-1-(4-{[2-(1H-indol-3-yl)ethyl]carbamoyl}-1,3-thiazol-2-yl)-4-methylpentan-3-yl]-N-methyl-L-isoleucinamide] here?
Its IC50 is 64.6 nM.

For `CC[C@H](C)[C@H](NC(=O)[C@@]1(C)CCCN1C)C(=O)N(C)[C@H](C[C@@H](OC(C)=O)c1nc(C(=O)NCCNC(=O)c2ccccc2)cs1)C(C)C` [#B60, 1,2-dimethyl-D-prolyl-N-[(1R,3R)-1-(acetyloxy)-1-(4-{[2-(benzoylamino)ethyl]carbamoyl}-1,3-thiazol-2-yl)-4-methylpentan-3-yl]-N-methyl-L-isoleucinamide], which IC50 is on record?
The IC50 was 108 nM.

Which IC50 does the source give for `CC[C@H](C)[C@H](NC(=O)[C@@]1(C)CCCN1C)C(=O)N(C)[C@H](C[C@@H](OC(C)=O)c1nc(C(=O)NC2(c3ccccn3)CC2)cs1)C(C)C` [#B63] here?
Its IC50 is 105 nM.

Which IC50 does the source give for `CC[C@H](C)[C@H](NC(=O)[C@@]1(C)CCCN1C)C(=O)N(C)[C@H](C[C@@H](OC(C)=O)c1nc(C(=O)NCCN2CCOC2=O)cs1)C(C)C` [#B64, 1,2-dimethyl-D-prolyl-N-[(1R,3R)-1-(acetyloxy)-4-methyl-1-(4-{[2-(2-oxo-1,3-oxazolidin-3-yl)ethyl]carbamoyl}-1,3-thiazol-2-yl)pentan-3-yl]-N-methyl-L-isoleucinamide] here?
Its IC50 is 73 nM.

Which IC50 does the source give for `CC[C@H](C)[C@H](NC(=O)[C@@]1(C)CCCN1C)C(=O)N(C)[C@H](C[C@@H](OC(C)=O)c1nc(C(=O)NCC2(c3ccccc3)CCN(C)CC2)cs1)C(C)C` [#B65, 1,2-dimethyl-D-prolyl-N-[(1R,3R)-1-(acetyloxy)-4-methyl-1-(4-{[(1-methyl-4-phenylpiperidin-4-yl)methyl]carbamoyl}-1,3-thiazol-2-yl)pentan-3-yl]-N-methyl-L-isoleucinamide] here?
Its IC50 is 33.8 nM.

With `CC[C@H](C)[C@H](NC(=O)[C@@]1(C)CCCN1C)C(=O)N(C)[C@H](C[C@@H](OC(C)=O)c1nc(C(=O)NC(Cc2ccccc2)c2ccc(N(C)C)cc2)cs1)C(C)C` (stereo partly drawn) [#B66, 1,2-dimethyl-D-prolyl-N-{(1R,3R)-1-(acetyloxy)-1-[4-({1-[4-(dimethylamino)phenyl]-2-phenylethyl}carbamoyl)-1,3-thiazol-2-yl]-4-methylpentan-3-yl}-N-methyl-L-isoleucinamide] as the compound, how does the IC50 read?
Its IC50 is 52.2 nM.
